The values below come from publication PMC9964390, “Design, Synthesis and Phenotypic Profiling of Simplified Gedatolisib Analogues” (Pharmaceuticals, 2023).

One data set has as its system CCRF-CEM. The experiment in a line: Muse Count & Viability Kit (flow cytometry). As to conditions: for CC50 / Emax: Homo sapiens.
The test system of a further data set is K562. The experiment in a line: MTT cell viability assay. The data set is classed as cell-based. Particulars: Homo sapiens, K562, 72 h MTT; for Emax: read-out: Emax (maximum effect at maximum concentration used). On the procedure:
(§1) For the evaluation of cellular cytotoxicity in cancer cell lines, the compounds were tested at concentrations ranging from 0.00003 μM to 150 μM. Immortalized cancer cells were selected: PC-3 (PTEN-mutated prostate adenocarcinoma), MCF-7 (PI3KCA-mutated breast carcinoma), K562 (P53-mutated chronic myeloid leukemia), CCRF-CEM (acute lymphoblastic leukemia with mutation in PTEN) and MOLT-4 (acute lymphoblastic leukemia with mutation in PI3KR1/PTEN). Peripheral blood mononuclear cells (PBMCs) were used to determine the cytotoxic selectivity index (SI). All immortalized cells were cultured in RPMI 1640 medium with 10% (v/v) FBS, streptomycin + penicillin, at 37 °C in a humidified incubator containing 5% CO2.
(§2) Cell viability was assessed by the MTT assay. The lines selected for this study were plated according to their respective densities, which ranged from 3 × 10^4 to 4 × 10^4 cells per well. Subsequently, they were treated with test compounds at different concentrations (0.00003 μM to 150 μM), gedatolisib and GSK-1059615.
(§3) After incubation, the plates are centrifuged at 440× g for 10 min. Then, 110 μL of the supernatant was withdrawn and each well received 10μL of the MTT solution. The plate was again incubated in an oven at 37 °C and 5% CO2 for 3 to 4 h. At the end of the incubation time, 100 μL of SDS-HCL detergent was added to solubilize the formazan crystals. The plate was shaken on an automatic overnight shaker and then read at a wavelength of 595 nm on the Molecular Devices Spectramax M5 plate reader.
(In general: Formazan colour is commonly taken as a measure of viable cells.)

In another data set the test system is PC-3. Description: MTT cell viability assay. As to conditions: Homo sapiens, PC-3, 72 h MTT; for CC50: 95% confidence interval in brackets; for Emax: read-out: Emax (maximum effect at maximum concentration used). The data set is classed as cell-based. On the procedure: as §1, §2, §3
For a further data set, the system named is MCF7. Description: MTT cell viability assay. The data set is classed as cell-based. Particulars: Homo sapiens, MCF7, 72 h MTT; for CC50: 95% confidence interval in brackets; for Emax: read-out: Emax (maximum effect at maximum concentration used). On the procedure: as §1, §2, §3
The subject of data set [1] is PI3K activation and phosphorylation in CCRF-CEM cell line. Description: Muse PI3K Activation Dual Detection Kit. The data set is classed as cell-based, human. On the procedure:
The methodology evaluates the activation and phosphorylation of PI3K and was performed from the labelling with the Guava Muse Luminex® PI3K Activation Dual Detection Kit (catalog n^o. MCH200103, Luminex) containing the anti-AKT/PKB-PECy5 antibody to measure total PI3K and the anti-phospho-AKT (Ser473)-Alexa Fluor® 555 antibody for measurement of activated PI3K.
Following 48 h of incubation in an incubator at 37 °C with 5% CO2, 1 mL of the cell solution was transferred to an Eppendorf tube, washed with PBS and centrifuged at 300× g for 5 min. The supernatant was discarded, and the pellet formed was resuspended in 500 µL of PBS. The samples were again centrifuged at 300× g for 5 min and the supernatant discarded.
Then the cell solutions were resuspended in 200 µL of assay buffer (Part no. CS202124), followed by the addition of 200 µL of fixation buffer (Part n^o. CS202122), ending up with a total volume of 400 µL per sample. The samples were incubated for 5 min on ice and centrifuged at 300× g for 5 min and the supernatant discarded.
Cells were permeabilized by adding 200 µL of ice-cold permeabilization buffer (Part n^o. CS202125) and then incubated on ice for 5 min and centrifuged at 300× g for 5 min, and the supernatant was discarded. The formed pellets were resuspended in 450 µL of assay buffer and vortexed at medium speed. In total, 90 µL of the solution from each sample was aliquoted into a new tube, and 10 µL of the cocktail solution containing Anti-phospho-Akt (Ser473), Alexa Fluor®555 and Anti-Akt/PKB, Pecy5 was added. The samples were homogenised and incubated for 30 min in the dark at room temperature.
After the incubation step, 100 µL of assay buffer was added per sample and centrifuged at 300× g for 5 min, and the supernatant was discarded. The formed pellets were resuspended in 200 µL of assay buffer and vortexed, and the samples were read in Guava Muse Luminex®. Data from three independent experiments performed in duplicate were analysed in the Prism6 program to determine the percentage of cells expressing activated and inactivated PI3K.

A further data set relates to MOLT-4. Description: Muse Count & Viability Kit (flow cytometry). As to conditions: for CC50 / Emax: Homo sapiens; for loss of potency in Muse Count & Viability Kit 72 h versus 72 h MTT: MOLT-4.
Data set [2] deals with MCF7 (breast cancer cells). Also noted: method as in Mallon and coworkers [15]. Particulars: ref Mallon and coworkers [15]; cited from earlier work.
The test system of data set [3] is human peripheral blood mononuclear cells (PBMCs). Description: PBMC viability assay (72 h MTT). The data set is classed as cell-based. Particulars: highest concentration studied 50 μM. On the procedure: Donor blood was collected and EDTA (ethylenediamine tetraacetic acid) was added to the sterile laminar flow in a 1:20 ratio. In a 15 mL falcon tube, 4.5 mL of Ficoll gradient was added, and then 9 mL of blood was added over the gradient in a 1:2 ratio. The tubes were centrifuged for 40 min at a speed of 750× g with an acceleration of 2 and a brake of 0. The ring of mononuclear cells formed was collected and added to a new tube.
Tubes with PBMCs were centrifuged in an incomplete RPMI medium for 10 min at 580× g with an acceleration of 8 and a brake of 9. The supernatant was discarded, and the cells were resuspended in 1 mL of RPMI medium supplemented with 20% […]. PBMCs were added to 96-well plates at a concentration of 1 × 10^5 cells per well. […]
After incubation, each well received 20 µL of MTT (5 mg/mL), followed by incubation for 4 h in the CO2 oven and centrifugation for 12 min at 1200× g. The supernatant from each well was taken, and 100 µL of isopropyl alcohol was added to solubilize the formazan crystals. The absorbance of the plates was measured at 570 nm in the Flex Station equipment.

As a reminder, the CC50 is the concentration that lowers cell viability or growth by half.

Protocol for MOLT-4: Cell viability, cell death pattern, cell cycle and detection of PI3K activation were evaluated, and each analysis was performed using specific protocols of the Guava Muse Cell Analyzer.
In total, 20 µL of the cell solution was added to 380 µL of the reagent in 1 mL Eppendorf tubes and incubated for 5 min at room temperature in the dark. Samples from three independent experiments carried out in duplicate were read on the cytometer, followed by statistical analysis of the histograms on Prism6 to determine the CC50.

In the case of `c1ccc(N2CCN(c3nc(N4CCCNCC4)nc(N4CCOCC4)n3)CC2)cc1` [5f, 4-(4-(1,4-Diazepan-1-yl)-6-(4-phenylpiperazin-1-yl)-1,3,5-triazin-2-yl)morpholine], the “loss of potency in Muse Count & Viability Kit 72 h versus 72 h MTT” value in the data set with CCRF-CEM and in the data set on MOLT-4 was at most 10 fold throughout. Moreover, the CC50 with CCRF-CEM (48 h) is 49 µM; in the data set on CCRF-CEM (72 h), 53.1 µM; in the data set on K562 (95% confidence interval in brackets), 23.4 µM; in the data set on PC-3 it was 62.1 µM; with MCF7, 37 µM; in the data set with MOLT-4 (MOLT-4, 48 h) it was 51 µM. Besides, the CC50 in the data set with MOLT-4 (MOLT-4, 72 h) came to 60.8 µM. The Emax in the data set with CCRF-CEM (48 h) worked out at 95%; in the data set on CCRF-CEM (72 h), 96%; in the data set with K562 it was 84%; in the data set on PC-3, 84%; in the data set with MCF7, 91%; in the data set with MOLT-4 (MOLT-4, 48 h), 90%. In the data set on MOLT-4 (MOLT-4, 72 h), this molecule yielded an Emax of 92%. In addition, the figures for the “percentage of inactivated cells raised to” value in data set [1] (concentration 10 times higher than its CC50) and in data set [1] (tested at its CC50) were 65% and 30%, respectively.
Consider `CN(C)C1CCN(C(=O)c2ccc(NC(=O)Nc3ccc(-c4nc(N5CCOCC5)nc(N5CCOCC5)n4)cc3)cc2)CC1` [Gedatolisib, gedatolisib], for which the CC50 in data set [2] is 0.036 µM; in the data set with CCRF-CEM (48 h), 5.88 µM; in the data set with CCRF-CEM (72 h), 6.15 µM; in the data set with K562 (K562, 72 h), above 24 µM; in the data set on K562 (K562, 72 h, 95% confidence interval in brackets), 24.1 µM; with PC-3, 0.54 µM. Moreover, the CC50 in the data set with MCF7 was determined as 0.07 µM; with MOLT-4 (MOLT-4, 48 h) it was 1.65 µM; in the data set on MOLT-4 (MOLT-4, 72 h), 1.15 µM. Moreover, the “loss of potency in Muse Count & Viability Kit 72 h versus 72 h MTT” value in the data set with CCRF-CEM and with MOLT-4 was 100 fold in each case. Further, the Emax turned out to be 94% in the data set with CCRF-CEM (48 h); 94% in the data set with CCRF-CEM (72 h); 64% in the data set on K562; 80% in the data set on PC-3; 87% in the data set on MCF7; 82% in the data set on MOLT-4 (MOLT-4, 48 h). This molecule had an Emax with MOLT-4 (MOLT-4, 72 h) of 86%. Also, the “increase of the percentage of cells in the inactivated state” value in data set [1] (at its CC50 (~6 μM) and 10 times lower (0.6 μM)) is “about 75%”. Also, the “Emax (reduction of viability of PBMCs)” value in data set [3] is recorded as 33%.
